Measured values as given in ChEMBL document CHEMBL1201862, “PubChem BioAssay data set” (2004).
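Interpolation was linear, between the two tested concentrations surrounding the appropriate level; five concentrations were tested over 48 hours in 96-well plates. GI50 = concentration required for 50% inhibition of growth.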 Calls of active or inactive are those of the source. Rule as the data show it: active = GI50 up to about 1.1 µM and inactive = higher.

Columns and labels:
Experiment in all cases: NCI anticancer screen, dose series, 48 h
786-0 = tested on: 786-0
A498 = tested on: A498
BT-549 = tested on: BT-549
DU-145 = tested on: DU-145
HL-60 = tested on: HL-60
HOP-92 = tested on: HOP-92
IGROV-1 = tested on: IGROV-1
K562 = tested on: K562
KM12 = tested on: KM12
LOX IMVI = tested on: LOX IMVI
M14 = tested on: M14
MDA-MB-231 = tested on: MDA-MB-231
MOLT-4 = tested on: MOLT-4
Malme-3M = tested on: Malme-3M
NCI-H226 = tested on: NCI-H226
NCI-H23 = tested on: NCI-H23
OVCAR-3 = tested on: OVCAR-3
PC-3 = tested on: PC-3
SW-620 = tested on: SW-620
UO-31 = tested on: UO-31

SMILES	GI50 (786-0)	GI50 (A498)	GI50 (BT-549)	GI50 (DU-145)	GI50 (HL-60)	GI50 (HOP-92)	GI50 (IGROV-1)	GI50 (K562)	GI50 (KM12)	GI50 (LOX IMVI)	GI50 (M14)	GI50 (MDA-MB-231)	GI50 (MOLT-4)	GI50 (Malme-3M)	GI50 (NCI-H226)	GI50 (NCI-H23)	GI50 (OVCAR-3)	GI50 (PC-3)	GI50 (SW-620)	GI50 (UO-31)
CCNc1nc(N)c(C(=O)c2ccc(Cl)cc2)s1	39.9 µM (inactive)	20.8 µM (inactive)	40.3 µM (inactive)	32.7 µM (inactive)	13.6 µM (inactive)	> 100 µM (inactive)	25.1 µM (inactive)	29.3 µM (inactive)	30.3 µM (inactive)	40.1 µM (inactive)	44.6 µM (inactive)	> 100 µM (inactive)	27.4 µM (inactive)	> 100 µM (inactive)	22.3 µM (inactive)	45.6 µM (inactive)	19.9 µM (inactive)	39.9 µM (inactive)	31.2 µM (inactive)	15 µM (inactive)
CN(C)CCOc1ccc(-c2c(Oc3ccc(Cl)cc3)c(=O)oc3ccccc23)cc1	4.27 µM (inactive)	19.4 µM (inactive)	15 µM (inactive)	10.5 µM (inactive)	5.61 µM (inactive)	19.5 µM (inactive)	4.7 µM (inactive)	3.84 µM (inactive)	9.57 µM (inactive)	6.98 µM (inactive)	2.21 µM (inactive)	7.78 µM (inactive)	5.47 µM (inactive)	5.83 µM (inactive)	> 35.6 µM (inactive)	14.5 µM (inactive)	12.4 µM (inactive)	6.64 µM (inactive)	> 23.5 µM (inactive)	5.43 µM (inactive)
CCOC(=O)CCC(NC(=O)c1ccc(Nc2nc3ccccc3nc2-c2cccs2)cc1)C(=O)OCC (stereo not given)	32.4 µM (inactive)	21.7 µM (inactive)	23.6 µM (inactive)	29.8 µM (inactive)	5.21 µM (inactive)	29.8 µM (inactive)	28 µM (inactive)	12.1 µM (inactive)	24.6 µM (inactive)	23.1 µM (inactive)	> 100 µM (inactive)	27.3 µM (inactive)	7.98 µM (inactive)	24.1 µM (inactive)	26.6 µM (inactive)	32.3 µM (inactive)	> 100 µM (inactive)	38.5 µM (inactive)	33.8 µM (inactive)	30.9 µM (inactive)
CN1C(=O)C23CCCCC2CC1(c1ccccc1)S3 (stereo not given)	> 100 µM (inactive)	> 100 µM (inactive)	99.3 µM (inactive)	> 100 µM (inactive)	35.7 µM (inactive)	60.7 µM (inactive)	> 100 µM (inactive)	71.1 µM (inactive)	> 100 µM (inactive)	79.8 µM (inactive)	> 100 µM (inactive)	71.1 µM (inactive)	38.3 µM (inactive)	> 100 µM (inactive)	> 100 µM (inactive)	66.8 µM (inactive)	50.9 µM (inactive)	44.1 µM (inactive)	> 100 µM (inactive)	63 µM (inactive)
O=C(O)C1C2C=CC(O2)C1C(=O)NCc1ccccn1 (stereo not given)	> 100 µM (inactive)	> 100 µM (inactive)	> 100 µM (inactive)	> 100 µM (inactive)	> 100 µM (inactive)	> 100 µM (inactive)	> 100 µM (inactive)	> 100 µM (inactive)	> 100 µM (inactive)	> 100 µM (inactive)	> 100 µM (inactive)	> 100 µM (inactive)	> 100 µM (inactive)	> 100 µM (inactive)	> 100 µM (inactive)	> 100 µM (inactive)	> 100 µM (inactive)	> 100 µM (inactive)	> 100 µM (inactive)	> 100 µM (inactive)
CC(=O)OCC1OC(n2c(S)nc(-c3ccccc3)c(C#N)c2=O)C(OC(C)=O)C(OC(C)=O)C1OC(C)=O (stereo not given)	> 100 µM (inactive)	> 100 µM (inactive)	> 100 µM (inactive)	> 100 µM (inactive)	> 100 µM (inactive)	> 100 µM (inactive)	> 100 µM (inactive)	> 100 µM (inactive)	> 100 µM (inactive)	> 100 µM (inactive)	> 100 µM (inactive)	> 100 µM (inactive)	> 100 µM (inactive)	> 100 µM (inactive)	> 100 µM (inactive)	> 100 µM (inactive)	> 100 µM (inactive)	> 100 µM (inactive)	> 100 µM (inactive)	> 100 µM (inactive)
CCOCC(=O)N[C@H]1CCc2cc(OC)c(OC)c(OC)c2-c2ccc(SC)c(=O)cc21	< 0.01 µM (active)	< 0.01 µM (active)	< 0.01 µM (active)	< 0.01 µM (active)	0.0217 µM (active)	< 0.01 µM (active)	< 0.01 µM (active)	0.0146 µM (active)	< 0.01 µM (active)	< 0.01 µM (active)	< 0.01 µM (active)	< 0.01 µM (active)	< 0.01 µM (active)	< 0.01 µM (active)	0.0465 µM (active)	< 0.01 µM (active)	< 0.01 µM (active)	< 0.0327 µM (active)	< 0.01 µM (active)	0.0188 µM (active)
O=C1C(Cl)=C(OCCCCl)C(=O)c2c(O)ccc(O)c21	2.04 µM (inactive)	15.2 µM (inactive)	1.92 µM (inactive)	9.73 µM (inactive)	0.0715 µM (active)	1.78 µM (inactive)	4.18 µM (inactive)	0.401 µM (active)	13.1 µM (inactive)	1.76 µM (inactive)	1.43 µM (inactive)	2.31 µM (inactive)	0.189 µM (active)	1.74 µM (inactive)	16.9 µM (inactive)	2.19 µM (inactive)	2.42 µM (inactive)	3.99 µM (inactive)	1.35 µM (inactive)	6.55 µM (inactive)
C#CCN(Cc1ccc2nc(OC)c(OC)nc2c1)c1cc(OC)c(OC)c(OC)c1	24 µM (inactive)	35.5 µM (inactive)	15.4 µM (inactive)	27.6 µM (inactive)	12.7 µM (inactive)	7.43 µM (inactive)	19.1 µM (inactive)	3.98 µM (inactive)	15 µM (inactive)	11.7 µM (inactive)	22.1 µM (inactive)	12.1 µM (inactive)	16.9 µM (inactive)	23 µM (inactive)	15.7 µM (inactive)	8.36 µM (inactive)	37.8 µM (inactive)	26.1 µM (inactive)	30.2 µM (inactive)	22.1 µM (inactive)
